{
  "source": "patent US20150216865A1",
  "about": "“METHODS OF TREATING A BRUTON'S TYROSINE KINASE DISEASE OR DISORDER” (Celgene Avilomics Research, Inc., priority 2012, published 2015)",
  "key": {"[1]": {"tested_on": "KC", "test": "Inflammatory chemokine and cytokine analysis in CIA mice, KC", "type": "in vivo, mouse", "excerpt": "Inflammatory Chemokine and Cytokine Analysis: At the termination of the CIA study, mice were sacrificed and blood was harvested via cardiac punch using EDTA as an anticoagulant. […] Levels of various mouse cytokines in plasma were quantified using Bioplex® Suspension Array System according to manufacturer's instruction (BioRad, mTNFa (171-G5023M), mIL-6 (171-G5007M), mKC (171-G5018M), mIFNg (171-G5017M), mIL-17 (Z60-00006Z2), mIL-1β (171-G5002M), mMCP-1 (171-G5019M)."}, "[2]": {"tested_on": "TNF-a", "test": "Inflammatory chemokine and cytokine analysis in CIA mice, TNF-a", "type": "in vivo, mouse", "protocol": "Inflammatory Chemokine and Cytokine Analysis: At the termination of the CIA study, mice were sacrificed and blood was harvested via cardiac punch using EDTA as an anticoagulant. Following centrifugation, serum was diluted 1:4 with a mouse serum diluents kit (BioRad cat#171-305004). Levels of various mouse cytokines in plasma were quantified using Bioplex® Suspension Array System according to manufacturer's instruction (BioRad, mTNFa (171-G5023M), mIL-6 (171-G5007M), mKC (171-G5018M), mIFNg (171-G5017M), mIL-17 (Z60-00006Z2), mIL-1β (171-G5002M), mMCP-1 (171-G5019M)."}, "[3]": {"target": "T1, Btk (Mus musculus, UniProt P35991)", "T1 construct": "from tissue; host or cells: mouse spleen", "T1 sequence (P35991 whole entry)": "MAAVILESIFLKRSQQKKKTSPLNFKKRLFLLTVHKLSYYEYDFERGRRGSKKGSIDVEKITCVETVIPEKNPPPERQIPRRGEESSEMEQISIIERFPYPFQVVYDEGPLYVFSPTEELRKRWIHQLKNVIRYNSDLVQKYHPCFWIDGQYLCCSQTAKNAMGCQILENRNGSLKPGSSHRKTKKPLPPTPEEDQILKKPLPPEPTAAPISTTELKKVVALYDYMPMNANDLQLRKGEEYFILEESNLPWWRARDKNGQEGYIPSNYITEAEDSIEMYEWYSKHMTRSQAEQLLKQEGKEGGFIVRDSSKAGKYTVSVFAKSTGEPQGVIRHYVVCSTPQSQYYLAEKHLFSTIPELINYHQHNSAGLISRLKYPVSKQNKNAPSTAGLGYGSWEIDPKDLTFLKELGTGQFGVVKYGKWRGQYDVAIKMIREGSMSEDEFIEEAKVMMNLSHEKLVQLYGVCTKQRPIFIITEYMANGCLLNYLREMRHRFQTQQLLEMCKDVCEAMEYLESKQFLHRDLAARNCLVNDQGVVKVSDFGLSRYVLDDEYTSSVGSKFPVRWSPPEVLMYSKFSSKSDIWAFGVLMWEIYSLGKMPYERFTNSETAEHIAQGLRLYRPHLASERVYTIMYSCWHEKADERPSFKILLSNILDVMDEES", "test": "Btk occupancy in spleen lysates of CIA mice", "type": "in vivo", "protocol": "Spleen Homogenization: Spleens were harvested from mice, frozen immediately in liquid nitrogen and stored at −80° C. To generate spleen lysates, each spleen was sliced in half and lysed using a Precellys 24 Bead Homogenizer in 500 μL of BioRad Bio-Plex Lysis Buffer plus protease inhibitors. Supernatant was transferred to a fresh microfuge tube and stored frozen at −80° C. until analysis.\nBtk Target Site Occupancy ELISA: An ELISA method for the detection of free uninhibited Btk in mouse, rat, dog, monkey, and human lysates was developed at Celgene Avilomics Research and a validation of this method in human B cell lysate was performed by a CLIA Certified laboratory (Cambridge Biomedical Laboratories, Boston, Mass.) The parameters that were assessed included: accuracy, linearity, dilution, precision (intra and inter-assay), stability, reference range, freeze-thaw cycles, reportable range, specificity, sensitivity, and carryover. […] Standards and samples were transferred to a streptavidin-coated 96-well ELISA plate and mixed while shaking for 1 h at room temperature. […] After wash, goat α-mouse-HRP (1:5000 dilution in PBS+0.05% Tween-20+0.5% BSA) was added and incubated for 1 h at room temperature. The ELISA was developed with addition of tetramethyl benzidine (TMB) followed by Stop Solution and read at OD 450 nm.\nEstablished Collagen Induced Arthritis Model: Experiments were carried out at Bolder Biopath, Boulder, Colo. All experiments were carried out in compliance with regulations of the Institutional Animal Care and Use Committee and were conducted in accordance with principles and procedures dictated by the highest standards of humane animal care. Dba1 mice were injected at the base of the tail with 150 μL of Freund's Complete Adjuvant (Sigma) containing bovine type II collagen (Elastin Products, Owensville, Mo.) (2 mg/ml) on day 0 and again on day 21. […] Randomization into each group was done after swelling was obviously established in at least one paw, and attempts were made to assure approximately equal mean scores across the groups at the time of enrollment. […] Treatment continued daily (QD at 24 h intervals) through arthritis day 14. […] Clinical scores were assessed for each of the paws on study arthritis days 1-15 using the following scoring system: 0=normal, 1=one hind or fore paw joint affected or minimal diffuse erythema and swelling, 2=two hind or fore paw joints affected or mild diffuse erythema and swelling, 3=three hind or fore paw joints affected or moderate diffuse erythema and swelling, 4=marked diffuse erythema and swelling or =four digit joints affected, 5=severe diffuse erythema and severe swelling entire paw, unable to flex digits."}, "[4]": {"test": "Solubility", "type": "physicochemical"}, "[5]": {"tested_on": "male NOD mice", "test": "NOD mouse model, lachrymal gland histopathology", "type": "in vivo", "details": "20 weeks of age", "excerpt": "Histopathology. Samples of lachrymal gland and salivary glands from all animals were fixed for Haematoxylin & Eosin histological analysis. Sections were inspected blind by a qualified histopathologist and scored for signs of pathology according to a semi-quantitative scoring system. This system is based on the mean number of inflammatory foci comprising 50 or more mononuclear inflammatory cells per objective field. The ratio of infiltrated to normal glandular tissue was expressed on a five point scale.\nLachrymal Gland Histopathology. Lachrymal glands from Control BALB/c mice (n=12 mice) and vehicle-treated NOD mice (n=9 mice) were examined and scored, in order to validate the model. For each animal, one section from the right lachrymal gland and one section from the left lachrymal gland were prepared. Sections were examined and scored for two criteria:\n(i) Focus Score. The mean number of inflammatory foci comprising ≧50 mononuclear inflammatory cells per ×10 objective field was counted. Five such fields were assessed (where possible) to derive this index and these are selected to contain the maximum number of such foci. Where the overall area of the tissue section was less than five fields, the number of ×10 objective fields was recorded and used to determine the focus score. (ii) Area Score. […]"}},
  "note": "Like-named read-outs stand apart in the source and are kept apart here. Marks after values point to notes of the source that are not given here.",
  "data": [
    {"smiles": "C=CC(=O)Nc1cccc(Nc2nc(Nc3ccc(OCCOC)cc3)ncc2F)c1", "note": "[Compound 1 besylate, N-(3-(5-fluoro-2-(4-(2-methoxyethoxyl)phenylamino)pyrimidin-4-ylamino)phenyl)acrylamide besylate]", "values": [
      {"measurement": "KC mean", "setting": "[1]; 3 mg/kg", "value": 62.0, "unit": "pg/mL"},
      {"measurement": "KC mean", "setting": "[1]; 10 mg/kg", "value": "31.1* pg/mL"},
      {"measurement": "KC mean", "setting": "[1]; 30 mg/lkg", "value": "17.5* pg/mL"},
      {"measurement": "TNF-a mean", "setting": "[2]; 3 mg/kg", "value": 160.2, "unit": "pg/mL"},
      {"measurement": "TNF-a mean", "setting": "[2]; 10 mg/kg", "value": "123.0* pg/mL"},
      {"measurement": "TNF-a mean", "setting": "[2]; 30 mg/lkg", "value": "117.0* pg/mL"},
      {"measurement": "Btk occupancy in spleen", "setting": "[3]; 30 mg/kg, 2 hours after last dose, besylate", "value": 95, "unit": "%"},
      {"measurement": "drug-free Btk protein re-synthesized, % of pre-dose levels", "setting": "[3]; 24 hours after a 10 mg/kg dose", "value": "approximately 60%"},
      {"measurement": "Btk occupancy in spleen", "setting": "[3]; 24 hours after the 3 mg dose", "value": 19, "unit": "%"},
      {"measurement": "Btk occupancy in spleen", "setting": "[3]; 24 hours, dose level 10 mg", "value": "> 40", "unit": "%"},
      {"measurement": "Btk occupancy in spleen", "setting": "[3]; 24 hours, dose level 30 mg", "value": "> 40", "unit": "%"},
      {"measurement": "receptor occupancy at 3 mg/kg", "setting": "[3]; mouse, 3 mg/kg, 2 hours after last dose", "value": 34, "unit": "%"},
      {"measurement": "receptor occupancy at 10 mg/kg", "setting": "[3]; mouse, 10 mg/kg, 2 hours after last dose", "value": 84, "unit": "%"},
      {"measurement": "receptor occupancy at 30 mg/kg", "setting": "[3]; mouse, 30 mg/kg, 2 hours after last dose", "value": 97, "unit": "%"},
      {"measurement": "solubility", "setting": "[4]; aqueous solution, aqueous buffer, approximately pH 3.0, read-out: maximum aqueous solubility", "value": 400, "unit": "µg/mL"},
      {"measurement": "solubility", "setting": "[4]; ethanol, organic solvent or mixture, read-out: solubility in ethanol", "value": "~10000", "unit": "µg/mL"},
      {"measurement": "solubility", "setting": "[4]; water, read-out: solubility in water", "value": "~160", "unit": "µg/mL"},
      {"measurement": "lachrymal gland Area Score (proportion of infiltrated glandular tissue) vs vehicle", "setting": "[5]", "value": "did not reduce"},
      {"measurement": "lachrymal gland Focus Score (number of inflammatory foci) vs vehicle", "setting": "[5]", "value": "did not reduce"}
    ]}
  ]
}
